ChEMBL document CHEMBL1201862, “PubChem BioAssay data set” (2004)
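Cultured in 96-well plates, cells were exposed to test compound for 48 hours across five concentrations. At the GI50, growth is halved.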 Activity calls are given as the source filed them. Rule as the data show it: active = GI50 up to about 1.1 µM and inactive = higher.

How the values were obtained:
Assay in all cases: NCI tumour cell line growth inhibition, 48 h
A498 = tested on: A498
ACHN = tested on: ACHN
CCRF-CEM = tested on: CCRF-CEM
COLO 205 = tested on: COLO 205
HCC 2998 = tested on: HCC 2998
HCT-15 = tested on: HCT-15
HL-60 = tested on: HL-60
HOP-62 = tested on: HOP-62
KM12 = tested on: KM12
M14 = tested on: M14
NCI-H460 = tested on: NCI-H460
OVCAR-3 = tested on: OVCAR-3
OVCAR-5 = tested on: OVCAR-5
SNB-19 = tested on: SNB-19
UO-31 = tested on: UO-31

Structure (SMILES) | GI50 (A498) | GI50 (ACHN) | GI50 (CCRF-CEM) | GI50 (COLO 205) | GI50 (HCC 2998) | GI50 (HCT-15) | GI50 (HL-60) | GI50 (HOP-62) | GI50 (KM12) | GI50 (M14) | GI50 (NCI-H460) | GI50 (OVCAR-3) | GI50 (OVCAR-5) | GI50 (SNB-19) | GI50 (UO-31)
CC1CCSC(N(C(=O)N(C)c2ccccc2)c2ccccc2)=N1 (centres undefined) | > 100 µM (inactive) | > 100 µM (inactive) | > 100 µM (inactive) | > 100 µM (inactive) | > 100 µM (inactive) | > 100 µM | > 100 µM (inactive) | > 100 µM (inactive) | > 100 µM (inactive) | > 100 µM (inactive) | > 100 µM (inactive) | > 100 µM (inactive) | > 100 µM (inactive) | > 100 µM (inactive) | > 100 µM (inactive)
Fc1cccc2cc3ccc4cccc5ccc(c12)c3c45 | > 100 µM (inactive) | > 100 µM (inactive) | > 100 µM (inactive) | > 100 µM (inactive) | 7.52 µM (inactive) | – | > 100 µM (inactive) | > 100 µM (inactive) | > 100 µM (inactive) | > 100 µM (inactive) | – | > 100 µM (inactive) | 7.4 µM (inactive) | > 100 µM (inactive) | > 100 µM (inactive)
O=C(c1ccccn1)c1nc(-c2ccc(Cl)c(Cl)c2)nc2ccc(Cl)cc12 | 45.1 µM (inactive) | 44.3 µM (inactive) | 71.1 µM (inactive) | – | > 100 µM (inactive) | 39.2 µM | > 100 µM (inactive) | 21.3 µM (inactive) | > 100 µM (inactive) | > 100 µM (inactive) | 50.4 µM (inactive) | 42.7 µM (inactive) | > 100 µM (inactive) | – | 56.9 µM (inactive)
COc1cc2c(c(OC)c1)C1(CC(CC#N)C2)SCCS1 (centres undefined) | > 100 µM (inactive) | > 100 µM (inactive) | > 100 µM (inactive) | > 100 µM (inactive) | > 100 µM (inactive) | > 100 µM | > 100 µM (inactive) | > 100 µM (inactive) | > 100 µM (inactive) | > 100 µM (inactive) | > 100 µM (inactive) | > 100 µM (inactive) | – | > 100 µM (inactive) | > 100 µM (inactive)
COc1cc2c(cc1OC)C(C(=O)c1cccc(OC)c1OC)C(=O)N(C)CC2 (centres undefined) | > 100 µM (inactive) | > 100 µM (inactive) | > 100 µM (inactive) | > 100 µM (inactive) | – | > 100 µM | > 100 µM (inactive) | > 100 µM (inactive) | > 100 µM (inactive) | > 100 µM (inactive) | > 100 µM (inactive) | > 100 µM (inactive) | – | > 100 µM (inactive) | > 100 µM (inactive)
O=c1c(-c2ccccc2)c(O)nc2[nH]c3ccccc3n12 | > 100 µM (inactive) | > 100 µM (inactive) | > 100 µM (inactive) | > 100 µM (inactive) | > 100 µM (inactive) | > 100 µM | > 100 µM (inactive) | > 100 µM (inactive) | > 100 µM (inactive) | > 100 µM (inactive) | > 100 µM (inactive) | > 100 µM (inactive) | > 100 µM (inactive) | > 100 µM (inactive) | > 100 µM (inactive)
COC(=O)C(=O)C(C#N)c1cccc2ccccc12 (centres undefined) | > 100 µM (inactive) | > 100 µM (inactive) | > 100 µM (inactive) | > 100 µM (inactive) | > 100 µM (inactive) | > 100 µM | > 100 µM (inactive) | > 100 µM (inactive) | 22.9 µM (inactive) | > 100 µM (inactive) | – | > 100 µM (inactive) | > 100 µM (inactive) | > 100 µM (inactive) | > 100 µM (inactive)
O=C(NC12CC3CCC1CC(C3)C2)[C@@H]1CCCN1C(=O)OCc1ccccc1 (some centres undefined) | 27.9 µM (inactive) | 44 µM (inactive) | 36.5 µM (inactive) | 33.5 µM (inactive) | 85.9 µM (inactive) | 44.2 µM | 25.8 µM (inactive) | > 100 µM (inactive) | 48.4 µM (inactive) | 85.9 µM (inactive) | – | 89.5 µM (inactive) | > 100 µM (inactive) | 50.9 µM (inactive) | 24 µM (inactive)
COc1ccc(OC)c2[s+]snc12 | > 100 µM (inactive) | 91.2 µM (inactive) | 36.1 µM (inactive) | > 100 µM (inactive) | > 100 µM (inactive) | – | 33.3 µM (inactive) | > 100 µM (inactive) | 38.6 µM (inactive) | 63.2 µM (inactive) | 36.6 µM (inactive) | 34.4 µM (inactive) | > 100 µM (inactive) | 65.8 µM (inactive) | 29 µM (inactive)
ONc1ncnc2[nH]cnc12 | – | > 100 µM (inactive) | > 100 µM (inactive) | > 100 µM (inactive) | > 100 µM (inactive) | > 100 µM | 14.7 µM (inactive) | > 100 µM (inactive) | > 100 µM (inactive) | > 100 µM (inactive) | > 100 µM (inactive) | > 100 µM (inactive) | > 100 µM (inactive) | > 100 µM (inactive) | > 100 µM (inactive)
Nc1ccn([C@@H]2C[C@H](CO)[C@@H](O)[C@H]2O)c(=O)n1 | > 57.7 µM (inactive) | > 57.7 µM (inactive) | – | > 57.7 µM (inactive) | > 57.7 µM (inactive) | > 57.7 µM | > 57.7 µM (inactive) | > 57.7 µM (inactive) | > 57.7 µM (inactive) | > 57.7 µM (inactive) | > 57.7 µM (inactive) | > 57.7 µM (inactive) | – | > 57.7 µM (inactive) | > 57.7 µM (inactive)
C/C(=C\CNc1ncnc2c1ncn2C1CCCCO1)COP(=O)(O)O (centres undefined) | – | > 100 µM (inactive) | > 100 µM (inactive) | > 100 µM (inactive) | > 100 µM (inactive) | > 100 µM | > 100 µM (inactive) | > 100 µM (inactive) | > 100 µM (inactive) | > 100 µM (inactive) | > 100 µM (inactive) | > 100 µM (inactive) | > 100 µM (inactive) | > 100 µM (inactive) | > 100 µM (inactive)
CNS(=O)(=O)NNS(=O)(=O)c1ccc(Br)cc1 | > 100 µM (inactive) | > 100 µM (inactive) | > 100 µM (inactive) | > 100 µM (inactive) | > 100 µM (inactive) | > 100 µM | > 100 µM (inactive) | > 100 µM (inactive) | – | > 100 µM (inactive) | 42.7 µM (inactive) | – | > 100 µM (inactive) | 0.309 µM (active) | 20.6 µM (inactive)
COC(=O)CSc1nnc(-c2ccc(O)c([N+](=O)[O-])c2)[nH]1 | > 100 µM (inactive) | > 100 µM (inactive) | > 100 µM (inactive) | – | > 100 µM (inactive) | > 100 µM | > 100 µM (inactive) | – | – | > 100 µM (inactive) | > 100 µM (inactive) | > 100 µM (inactive) | > 100 µM (inactive) | > 100 µM (inactive) | > 100 µM (inactive)
COc1ccc2c(c1)CCc1c-2nc2cc3c(cc2c1O)OCO3 | – | > 100 µM (inactive) | > 100 µM (inactive) | > 100 µM (inactive) | > 100 µM (inactive) | > 100 µM | > 100 µM (inactive) | > 100 µM (inactive) | > 100 µM (inactive) | > 100 µM (inactive) | > 100 µM (inactive) | > 100 µM (inactive) | – | > 100 µM (inactive) | > 100 µM (inactive)
